Assay results: publication PMC4503722, “Novel Phenotypic Outcomes Identified for a Public Collection of Approved Drugs from a Publicly Accessible Panel of Assays” (PLoS ONE, 2015)

Tests used:
[1] = system: endothelial tube formation in co-cultures of ECFCs and ADSCs treated with VEGF; assay: cells; type: cell-based, human
[2] = system: nuclear β-catenin in C2C12 cells; assay: cells; type: cell-based; settings: assay number 5; concentration response
[3] = system: alkaline phosphatase (ALP) activity in C2C12 cells; type: cell-based; settings: assay number 6; concentration response
HeLa cells = assay: cells; type: cell-based; settings: for Hela CellCycMod PI 2N IC50/EC50: assay number 14; for Hela CellCycMod PI 4N IC50/EC50: assay number 16; for Hela CellCycMod PI MI IC50/EC50: assay number 17; for Hela CellCycMod PI Cell Number IC50/EC50: assay number 18; for Hela CellCycMod PI S Phase IC50/EC50: assay number 15
DLD-1 = assay: cells; type: cell-based; settings: assay number 23
SW480 = assay: cells; type: cell-based; settings: assay number 24
HCT116 = assay: cells; type: cell-based; settings: assay number 25; basal
[4] = system: HCT116 cells treated with a GSK3β inhibitor; assay: cells; type: cell-based; settings: assay number 26; GSK3b inhibitor pretreated
Colo320 = assay: cells; type: cell-based; settings: assay number 27
HT-29 = assay: cells; type: cell-based; settings: assay number 28
RKO = assay: cells; type: cell-based; settings: assay number 29
SNU-C1 = assay: cells; type: cell-based; settings: assay number 30
hp70S6K1 (RPS6KB1) = biological target: T1, hp70S6K1 (RPS6KB1) (Homo sapiens, UniProt P23443); assay: Cerep LANCE kinase assay hp70S6K1 (S1 assay 31); type: biochemical; settings: assay number 31
T1 construct: purchased Cerep (LANCE kinase assay platform, contract assay)
T1 sequence (P23443 whole entry): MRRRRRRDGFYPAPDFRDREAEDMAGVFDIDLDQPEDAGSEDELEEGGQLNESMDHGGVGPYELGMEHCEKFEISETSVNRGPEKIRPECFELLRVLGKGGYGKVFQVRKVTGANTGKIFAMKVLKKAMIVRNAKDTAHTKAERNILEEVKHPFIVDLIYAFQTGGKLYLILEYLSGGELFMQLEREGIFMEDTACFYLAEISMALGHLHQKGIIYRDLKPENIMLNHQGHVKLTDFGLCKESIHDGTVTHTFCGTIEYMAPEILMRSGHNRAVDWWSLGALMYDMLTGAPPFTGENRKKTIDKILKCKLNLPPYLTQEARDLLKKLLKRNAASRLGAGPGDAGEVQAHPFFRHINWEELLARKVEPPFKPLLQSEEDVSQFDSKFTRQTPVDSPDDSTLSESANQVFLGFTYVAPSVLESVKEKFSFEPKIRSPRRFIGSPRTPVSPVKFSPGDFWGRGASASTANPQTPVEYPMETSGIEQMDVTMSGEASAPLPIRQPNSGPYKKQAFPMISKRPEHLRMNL

hKDR = biological target: T2, hKDR (Homo sapiens, UniProt P35968); assay: Cerep LANCE kinase assay hKDR (S1 assay 32); type: biochemical; settings: assay number 32
T2 construct: purchased Cerep (LANCE kinase assay platform, contract assay)
T2 sequence (P35968 20-1356): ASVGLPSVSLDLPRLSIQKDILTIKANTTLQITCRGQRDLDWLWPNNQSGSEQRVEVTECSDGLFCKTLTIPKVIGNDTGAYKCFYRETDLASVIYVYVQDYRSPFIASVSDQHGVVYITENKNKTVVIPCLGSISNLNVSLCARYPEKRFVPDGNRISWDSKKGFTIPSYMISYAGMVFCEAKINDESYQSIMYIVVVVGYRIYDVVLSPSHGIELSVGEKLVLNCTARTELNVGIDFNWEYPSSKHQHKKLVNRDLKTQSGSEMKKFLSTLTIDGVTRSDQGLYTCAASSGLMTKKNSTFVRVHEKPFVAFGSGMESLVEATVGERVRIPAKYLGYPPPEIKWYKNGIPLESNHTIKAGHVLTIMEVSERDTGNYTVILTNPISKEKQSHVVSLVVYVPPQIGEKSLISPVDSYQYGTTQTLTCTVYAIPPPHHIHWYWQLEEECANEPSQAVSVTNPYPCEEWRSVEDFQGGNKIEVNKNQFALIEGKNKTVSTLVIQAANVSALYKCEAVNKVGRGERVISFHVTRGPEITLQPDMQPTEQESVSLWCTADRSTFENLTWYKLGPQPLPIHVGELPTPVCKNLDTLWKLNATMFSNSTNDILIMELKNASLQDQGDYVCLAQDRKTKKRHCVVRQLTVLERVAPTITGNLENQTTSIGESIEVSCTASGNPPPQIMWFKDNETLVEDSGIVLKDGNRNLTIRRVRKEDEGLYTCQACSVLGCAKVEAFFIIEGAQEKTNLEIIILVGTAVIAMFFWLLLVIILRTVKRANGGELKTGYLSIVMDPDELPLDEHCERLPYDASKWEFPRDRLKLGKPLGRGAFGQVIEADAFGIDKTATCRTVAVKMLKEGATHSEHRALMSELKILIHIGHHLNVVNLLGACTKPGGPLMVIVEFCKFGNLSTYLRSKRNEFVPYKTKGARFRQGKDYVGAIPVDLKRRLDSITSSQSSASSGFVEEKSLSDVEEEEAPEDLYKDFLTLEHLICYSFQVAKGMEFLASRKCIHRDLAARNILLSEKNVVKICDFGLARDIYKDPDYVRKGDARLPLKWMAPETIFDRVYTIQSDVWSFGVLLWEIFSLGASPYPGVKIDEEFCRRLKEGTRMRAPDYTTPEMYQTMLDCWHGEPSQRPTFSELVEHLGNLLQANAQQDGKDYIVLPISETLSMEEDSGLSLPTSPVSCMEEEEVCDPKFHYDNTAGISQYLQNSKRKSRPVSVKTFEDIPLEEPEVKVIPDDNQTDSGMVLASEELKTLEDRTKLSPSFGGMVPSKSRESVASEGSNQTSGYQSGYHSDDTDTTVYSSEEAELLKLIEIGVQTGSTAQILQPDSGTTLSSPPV

hJAK2 = biological target: T3, hJAK2 (Homo sapiens, UniProt O60674); assay: Cerep LANCE kinase assay hJAK2 (S1 assay 33); type: biochemical; settings: assay number 33
T3 construct: purchased Cerep (LANCE kinase assay platform, contract assay)
T3 sequence (O60674 whole entry): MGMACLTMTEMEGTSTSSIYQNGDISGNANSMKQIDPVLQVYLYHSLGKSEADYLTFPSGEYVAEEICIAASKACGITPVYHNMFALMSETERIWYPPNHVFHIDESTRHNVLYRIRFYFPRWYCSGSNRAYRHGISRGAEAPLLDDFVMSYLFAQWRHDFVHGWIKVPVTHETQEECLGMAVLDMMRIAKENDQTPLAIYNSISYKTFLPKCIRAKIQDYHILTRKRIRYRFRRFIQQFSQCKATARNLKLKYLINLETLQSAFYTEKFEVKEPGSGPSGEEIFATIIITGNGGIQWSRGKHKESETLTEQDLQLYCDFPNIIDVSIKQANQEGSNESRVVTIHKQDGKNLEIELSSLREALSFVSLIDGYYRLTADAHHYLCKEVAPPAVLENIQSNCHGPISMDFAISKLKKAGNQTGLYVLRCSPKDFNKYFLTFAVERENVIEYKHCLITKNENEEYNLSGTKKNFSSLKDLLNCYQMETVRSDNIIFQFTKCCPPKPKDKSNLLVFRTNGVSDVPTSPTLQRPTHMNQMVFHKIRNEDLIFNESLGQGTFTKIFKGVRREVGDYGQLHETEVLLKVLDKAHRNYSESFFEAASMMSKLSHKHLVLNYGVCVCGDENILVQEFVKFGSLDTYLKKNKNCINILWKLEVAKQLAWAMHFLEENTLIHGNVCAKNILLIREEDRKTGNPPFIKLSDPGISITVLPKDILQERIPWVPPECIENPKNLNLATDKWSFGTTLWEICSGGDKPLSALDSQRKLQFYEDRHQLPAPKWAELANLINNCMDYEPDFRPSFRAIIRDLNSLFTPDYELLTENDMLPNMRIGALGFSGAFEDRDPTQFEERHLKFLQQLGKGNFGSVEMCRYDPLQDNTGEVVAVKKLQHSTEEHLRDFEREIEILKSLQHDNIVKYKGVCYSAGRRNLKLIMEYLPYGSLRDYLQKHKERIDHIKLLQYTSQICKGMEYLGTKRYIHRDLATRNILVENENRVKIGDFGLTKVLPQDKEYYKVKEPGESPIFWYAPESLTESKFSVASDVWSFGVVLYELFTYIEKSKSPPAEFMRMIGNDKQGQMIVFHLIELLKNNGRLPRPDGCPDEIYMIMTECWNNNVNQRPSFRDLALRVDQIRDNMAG

hGSK3b = biological target: T4, hGSK3b (Homo sapiens, UniProt P49841); assay: Cerep LANCE kinase assay hGSK3b (S1 assay 34); type: biochemical; settings: assay number 34
T4 construct: purchased Cerep (LANCE kinase assay platform, contract assay)
T4 sequence (P49841 whole entry): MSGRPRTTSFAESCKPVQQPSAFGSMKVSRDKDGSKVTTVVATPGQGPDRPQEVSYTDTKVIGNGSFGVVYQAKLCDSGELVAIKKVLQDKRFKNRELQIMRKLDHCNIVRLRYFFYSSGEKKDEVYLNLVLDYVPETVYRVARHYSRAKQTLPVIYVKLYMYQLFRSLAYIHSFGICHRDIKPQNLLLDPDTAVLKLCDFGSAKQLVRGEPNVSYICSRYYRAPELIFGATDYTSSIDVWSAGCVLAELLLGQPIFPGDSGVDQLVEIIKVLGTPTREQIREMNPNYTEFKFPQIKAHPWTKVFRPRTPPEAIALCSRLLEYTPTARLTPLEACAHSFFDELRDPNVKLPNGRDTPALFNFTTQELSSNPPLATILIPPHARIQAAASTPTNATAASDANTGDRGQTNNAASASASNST

hFLT3 = biological target: T5, hFLT3 (Homo sapiens, UniProt P36888); assay: Cerep LANCE kinase assay hFLT3 (S1 assay 35); type: biochemical; settings: assay number 35
T5 construct: purchased Cerep (LANCE kinase assay platform, contract assay)
T5 sequence (P36888 27-993): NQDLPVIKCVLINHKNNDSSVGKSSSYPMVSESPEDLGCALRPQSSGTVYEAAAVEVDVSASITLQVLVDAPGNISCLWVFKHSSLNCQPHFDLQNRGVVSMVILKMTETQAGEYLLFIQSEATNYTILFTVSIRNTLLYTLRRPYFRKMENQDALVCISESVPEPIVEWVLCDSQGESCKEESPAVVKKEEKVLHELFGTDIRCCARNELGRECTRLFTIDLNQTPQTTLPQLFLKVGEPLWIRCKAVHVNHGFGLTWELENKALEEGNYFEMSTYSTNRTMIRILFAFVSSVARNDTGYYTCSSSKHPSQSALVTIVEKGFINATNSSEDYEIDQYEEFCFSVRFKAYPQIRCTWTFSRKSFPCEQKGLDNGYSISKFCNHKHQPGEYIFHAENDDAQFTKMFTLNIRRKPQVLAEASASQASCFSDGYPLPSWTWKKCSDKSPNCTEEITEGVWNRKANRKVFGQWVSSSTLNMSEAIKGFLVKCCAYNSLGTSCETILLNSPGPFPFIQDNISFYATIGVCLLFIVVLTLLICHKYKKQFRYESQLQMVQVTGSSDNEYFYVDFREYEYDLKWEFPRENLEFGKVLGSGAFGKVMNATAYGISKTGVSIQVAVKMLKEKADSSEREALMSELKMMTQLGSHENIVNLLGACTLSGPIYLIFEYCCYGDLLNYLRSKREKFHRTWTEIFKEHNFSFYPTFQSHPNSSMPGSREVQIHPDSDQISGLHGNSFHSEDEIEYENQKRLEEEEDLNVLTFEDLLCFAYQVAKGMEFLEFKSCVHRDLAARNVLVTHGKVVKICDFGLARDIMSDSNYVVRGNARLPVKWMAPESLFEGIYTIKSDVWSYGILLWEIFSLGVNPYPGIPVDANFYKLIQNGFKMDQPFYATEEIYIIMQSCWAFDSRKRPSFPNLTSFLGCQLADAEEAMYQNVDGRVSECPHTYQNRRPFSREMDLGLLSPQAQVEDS

[5] = system: ECFC/ADSC co-culture cell nuclei number

Row | Compound | VEGF_ADSC\ECFC Angio CD31 TubeArea IC50/EC50 [1] | WntCondMedia_bCatenin C2C12 IC50/EC50 [2] | WntCondMedia_Alk Phos C2C12 IC50/EC50 [3] | Hela CellCycMod PI 2N IC50/EC50 (HeLa cells) | Hela CellCycMod PI 4N IC50/EC50 (HeLa cells) | Hela CellCycMod PI MI IC50/EC50 (HeLa cells) | Hela CellCycMod PI Cell Number IC50/EC50 (HeLa cells) | Basal_Viability ATP DLD-1 IC50/EC50 (DLD-1; basal) | Basal_Viability ATP SW480 IC50/EC50 (SW480; basal) | Basal_Viability ATP HCT116 IC50/EC50 (HCT116) | GSK3b inh pretreated_Viability ATP HCT116 IC50/EC50 [4] | Basal_Viability ATP Colo 320 IC50/EC50 (Colo320; basal) | Basal_Viability ATP HT-29 IC50/EC50 (HT-29; basal) | hp70S6K1 LANCE IC50/EC50 (hp70S6K1 (RPS6KB1)) | hKDR LANCE IC50/EC50 (hKDR) | hJAK2 LANCE IC50/EC50 (hJAK2) | hGSK3b LANCE IC50/EC50 (hGSK3b) | hFLT3 LANCE IC50/EC50 (hFLT3) | VEGF_ADSC\ECFC Angio Hoechst NucArea IC50/EC50 [5] | Hela CellCycMod PI S Phase IC50/EC50 (HeLa cells) | further results
1 | Cc1cc(C2CCCCC2)n(O)c(=O)c1.NCCO [NCGC00017112-10] | > 10 µM | > 20 µM | 1.0476 µM | > 10 µM | > 10 µM | > 10 µM | 0.5693 µM | 0.316 µM | 0.469 µM | 0.6557 µM | 0.3898 µM | 0.2084 µM | 7.035 µM | > 20 µM | > 20 µM | > 20 µM | > 20 µM | > 20 µM | > 10 µM |  | Basal_Viability ATP RKO IC50/EC50 (RKO; basal): 0.2329 µM; Basal_Viability ATP SNU-C1 IC50/EC50 (SNU-C1; basal): > 20 µM
2 | COc1ccc2cc1Oc1ccc(cc1)C[C@H]1c3c(cc4c(c3Oc3cc5c(cc3OC)CCN(C)[C@@H]5C2)OCO4)CCN1C [NCGC00161621-03] | 3.0213 µM | 5.6301 µM | 2.0494 µM | > 10 µM | > 10 µM | > 10 µM | 5.5384 µM |  |  | 9.5422 µM | 3.567 µM |  |  | > 20 µM | > 20 µM | > 20 µM | > 20 µM | > 20 µM | > 10 µM | > 10 µM | Basal_Viability ATP DLD-1 IC50/EC50 (DLD-1): 12.3697 µM; Basal_Viability ATP SW480 IC50/EC50 (SW480): 0.308 µM; Basal_Viability ATP Colo 320 IC50/EC50 (Colo320): 1.426 µM; Basal_Viability ATP HT-29 IC50/EC50 (HT-29): 1.365 µM; Basal_Viability ATP RKO IC50/EC50 (RKO): 3.787 µM; Basal_Viability ATP SNU-C1 IC50/EC50 (SNU-C1): 7.483 µM
3 | COCc1c(C(C)C)nc(C(C)C)c(/C=C/[C@@H](O)C[C@@H](O)CC(=O)[O-])c1-c1ccc(F)cc1.[Na+] [NCGC00164625-04] | 0.0894 µM | > 6.667 µM | > 20 µM | > 10 µM | > 10 µM | > 10 µM | > 10 µM | 2.507 µM | 0.1433 µM | 0.2403 µM | 0.05291 µM | 1.924 µM | 1.212 µM | > 20 µM | > 20 µM | > 20 µM | > 20 µM | > 20 µM | 0.259 µM | > 10 µM | Basal_Viability ATP RKO IC50/EC50 (RKO; basal): 1.013 µM; Basal_Viability ATP SNU-C1 IC50/EC50 (SNU-C1; basal): 1.8733 µM
4 | COc1cc(NCc2ccc3nc(N)nc(N)c3c2C)cc(OC)c1OC [NCGC00161419-05] | 4.418 µM | 0.0033 µM | > 20 µM | > 10 µM | > 10 µM | > 10 µM | 3.8068 µM |  |  | 0.02309 µM | 0.00392 µM |  |  | > 20 µM | > 20 µM | > 20 µM | > 20 µM | > 20 µM | > 10 µM | > 10 µM | Basal_Viability ATP DLD-1 IC50/EC50 (DLD-1): 0.1951 µM; Basal_Viability ATP SW480 IC50/EC50 (SW480): 0.0591 µM; Basal_Viability ATP Colo 320 IC50/EC50 (Colo320): 0.3859 µM; Basal_Viability ATP HT-29 IC50/EC50 (HT-29): 0.02122 µM; Basal_Viability ATP RKO IC50/EC50 (RKO): 0.00272 µM; Basal_Viability ATP SNU-C1 IC50/EC50 (SNU-C1): 5.1323 µM
